According to US20220062317A1, “NA+/K+ ATPASE INHIBITORS FOR USE IN THE PREVENTION OR TREATMENT OF METASTASIS” (UNIVERSITÄT BASEL, priority 2018, published 2022):
Where “and” joins values, the source holds several entries; their conditions need not be identical. Equal entries are not always repeated.

Experiments:
LM2 xenografts = test: LM2 xenograft, spontaneous CTC clusters and metastasis; type: in vivo, NSG mice; conditions: LM2 tumors; ouabain treatment
BRx50 CTC cell line = test: 17-day treatment, WGBS and i-cisTarget analysis of DMRs that gain methylation; type: cell-based, human; conditions: 20 nM
Protocol: (§1) In order to assess the effect of clustering on DNA methylation patterns and proliferation signature directly BR16 and BRx50 cell lines were cultured for 17 days to ensure that at least 4 divisions would take place. This is to allow proper time for DNA methylation remodeling to take place.
(§2) Under these conditions, for both CTC derived cell lines, a subset of cluster-associated hypomethylated DMRs from patient and xenografts regain ≥20% methylation.
(§3) Proteinase K digestion and bisulfite treatment was performed according to manufacturer's instructions for EZ DNA Methylation Direct Kit (Zymo, Cat #D5020). Bisulfite-treated DNA was eluted using 9 μl of Elution Buffer and used for library generation with TruSeq DNA methylation kit (Illumina, Cat #EGMK91396) according to manufacturer's instructions. For amplification, 18 cycles were performed using Failsafe Enzyme (Illumina, Cat #FSE51100) and indexes were introduced with Index Primers' Kit (Illumina, Cat #EGIDX81312). Library purification was performed using Agencourt AMPure XP beads at a ratio of 1:1 according to manufacturer's instructions. To avoid DNA loss during pipetting steps, Corning DeckWork low binding barrier pipet tips were used (Sigma, Cat #CLS4135-4X960EA). Library concentration was estimated using Qubit DS DNA HS Assay Kit according to manufacturer's instructions (Invitrogen, Cat #Q32854).
(§4) An enrichment score (ES) indicates the over- or underrepresentation of a certain object within a sample of many objects (=enrichment). […] A negative enrichment score indicates the opposite, namely that a feature is less present than to be expected by the values of other features in the sample. […] An enrichment score can be normalized by dividing a specific ES by the mean of the enrichment scores for all objects in the dataset to yield a normalized enrichment score (NES). Normalization of the enrichment score accounts for differences in gene set size and in correlations between gene sets and the expression dataset; therefore, a normalized enrichment scores (NES) can be used to compare analysis results across gene sets. Only TFBS with a NES score […] shown in the analysis.

BR16 CTC cell line = test: as above; type: cell-based, human; conditions: 20 nM
Protocol: as §1, §2, §3, §4

[1] = test system: BRx50 human CTC-derived cells; test: FDA-approved compound screen for CTC cluster dissociation (high content imaging); type: cell-based; conditions: even at lowest concentration tested (0.1 μM)

C[C@@H]1O[C@@H](O[C@H]2C[C@@H](O)[C@]3(CO)[C@H]4[C@H](O)C[C@]5(C)[C@@H](C6=CC(=O)OC6)CC[C@]5(O)[C@@H]4CC[C@]3(O)C2)[C@H](O)[C@H](O)[C@H]1O [ouabain, Ouabain]
CTC clusters (proportion) (LM2 xenografts): decrease in CTC clusters | metastatic burden compared to control (LM2 xenografts): reduced metastatic burden | overall CTC numbers (LM2 xenografts): without any change | primary tumor size (LM2 xenografts): without any change | proportion of single CTCs (LM2 xenografts): increase in the proportion of single CTCs | NES score of TFBS BCL11A in DMRs with ≥20% gain in methylation (BRx50 CTC cell line): 3.8 and 3.69 | NES score of TFBS FOS in DMRs with ≥20% gain in methylation (BRx50 CTC cell line): 3.91 | NES score of TFBS FOXG1/O1 in DMRs with ≥20% gain in methylation (BRx50 CTC cell line): 3.53 and 3.25 and 3.1 | NES score of TFBS HMBOX1 in DMRs with ≥20% gain in methylation (BRx50 CTC cell line): 3.35 and 3.30 and 3.22 | NES score of TFBS IRX6 in DMRs with ≥20% gain in methylation (BRx50 CTC cell line): 3.8 | NES score of TFBS MEIS1 in DMRs with ≥20% gain in methylation (BRx50 CTC cell line): 4.09 | NES score of TFBS NANOG in DMRs with ≥20% gain in methylation (BRx50 CTC cell line): 3.61 | NES score of TFBS OCT4 in DMRs with ≥20% gain in methylation (BRx50 CTC cell line): 3.42 | NES score of TFBS RORA in DMRs with ≥20% gain in methylation (BRx50 CTC cell line): 4.02 and 3.75 | NES score of TFBS SIX4/5 in DMRs with ≥20% gain in methylation (BRx50 CTC cell line): 3.87 and 3.65 | NES score of TFBS SOX18 in DMRs with ≥20% gain in methylation (BRx50 CTC cell line): 3.11 | NES score of TFBS YY2 in DMRs with ≥20% gain in methylation (BRx50 CTC cell line): 3.56 | NES score of TFBS ZNF493 in DMRs with ≥20% gain in methylation (BRx50 CTC cell line): 3.12 | number of DMRs with ≥20% gain in methylation (BRx50 CTC cell line): (n = 121) | NES score of TFBS BDP1 in DMRs with ≥20% gain in methylation (BR16 CTC cell line; 17-day treatment): 5.64 | NES score of TFBS CEBPD in DMRs with ≥20% gain in methylation (BR16 CTC cell line; 17-day treatment): 4.05 | NES score of TFBS FOS in DMRs with ≥20% gain in methylation (BR16 CTC cell line; 17-day treatment): 7.29 and 6.04 | NES score of TFBS FOXG1/O1 in DMRs with ≥20% gain in methylation (BR16 CTC cell line; 17-day treatment): 3.74 and 3.39 | NES score of TFBS HMBOX1 in DMRs with ≥20% gain in methylation (BR16 CTC cell line; 17-day treatment): 3.89 | NES score of TFBS HSF1 in DMRs with ≥20% gain in methylation (BR16 CTC cell line; 17-day treatment): 3.71 | NES score of TFBS IRF4 in DMRs with ≥20% gain in methylation (BR16 CTC cell line; 17-day treatment): 3.244 | NES score of TFBS IRX3 in DMRs with ≥20% gain in methylation (BR16 CTC cell line; 17-day treatment): 3.63 | NES score of TFBS IRX6 in DMRs with ≥20% gain in methylation (BR16 CTC cell line; 17-day treatment): 3.63 | NES score of TFBS KDM5D in DMRs with ≥20% gain in methylation (BR16 CTC cell line; 17-day treatment): 3.11 | NES score of TFBS MEIS1 in DMRs with ≥20% gain in methylation (BR16 CTC cell line; 17-day treatment): 3 | NES score of TFBS NANOG in DMRs with ≥20% gain in methylation (BR16 CTC cell line; 17-day treatment): 3.349 and 3.28 | NES score of TFBS OCT4 in DMRs with ≥20% gain in methylation (BR16 CTC cell line; 17-day treatment): 3.2 and 3.13 and 3.204 | NES score of TFBS SIX4/5 in DMRs with ≥20% gain in methylation (BR16 CTC cell line; 17-day treatment): 6.27 and 6.16 | NES score of TFBS SOX2 in DMRs with ≥20% gain in methylation (BR16 CTC cell line; 17-day treatment): 4.82 and 4.51 and 4.24 and 3.28 | NES score of TFBS SOX18 in DMRs with ≥20% gain in methylation (BR16 CTC cell line; 17-day treatment): 3.2 | NES score of TFBS SRY in DMRs with ≥20% gain in methylation (BR16 CTC cell line; 17-day treatment): 6.46 and 6.36 | NES score of TFBS TPPP in DMRs with ≥20% gain in methylation (BR16 CTC cell line; 17-day treatment): 3.1 | NES score of TFBS YAP5 in DMRs with ≥20% gain in methylation (BR16 CTC cell line; 17-day treatment): 3.55 and 3.08 | NES score of TFBS YY2 in DMRs with ≥20% gain in methylation (BR16 CTC cell line; 17-day treatment): 6.5, | NES score of TFBS ZNF274 in DMRs with ≥20% gain in methylation (BR16 CTC cell line; 17-day treatment): 4.59 and 3.01 | NES score of TFBS ZNF594 in DMRs with ≥20% gain in methylation (BR16 CTC cell line; 17-day treatment): 4.84 | number of DMRs with ≥20% gain in methylation (BR16 CTC cell line; 17-day treatment): n = (108) | gain of methylation in DMRs containing binding sites for stemness-related TFs (BR16 CTC cell line; 17 days): simultaneously affecting the binding sites of OCT4, SOX2 and NANOG | mean cluster size [1]: significant decrease in mean cluster size
